This passage reports pest or weed control results from patent US10959432B2, “Microbiocidal oxadiazole derivatives” (Syngenta Participations AG, priority 2016, dated 2021).

What all share (assay type): in vivo
Assay [1] concerns Puccinia recondita f. sp. tritici. The assay can be described thus: Fungicidal activity against Puccinia recondita f. sp. tritici / wheat / leaf disc preventative (brown rust). Particulars: foliar, 200 ppm in the applied formulation, wheat leaf segments cv. Kanzler, preventative (inoculated 1 day after application), assessed 7 to 9 days after application, read-out: disease control compared to untreated control leaf disks. In outline:
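Wheat cv. Kanzler leaf segments on agar sprayed with formulated compound diluted in water, inoculated with P. recondita spores 1 day later. Incubated at 19C, 75% rh, 12 h light/12 h dark; scored 7 to 9 days after application as percent disease control versus untreated segments. Test rate 200 ppm.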

A further assay relates to Uromyces viciae-fabae. The assay can be described thus: Fungicidal activity against Uromyces viciae-fabae / field bean / leaf disc preventative (faba-bean rust). To be noted: foliar, 288 h, 100 ppm in the applied formulation, field bean leaf discs, preventative (inoculated two hours after application), assessed 12 days after application, read-out: disease control compared to untreated control leaf discs. Here is the method:
Leaf disks or leaf segments of various plant species are cut from plants grown in a greenhouse. The cut leaf disks or segments are placed in multiwell plates (24-well format) onto water agar. The leaf disks are sprayed with a test solution before (preventative) or after (curative) inoculation. Compounds to be tested are prepared as DMSO solutions (max. 10 mg/ml) which are diluted to the appropriate concentration with 0.025% Tween20 just before spraying. The inoculated leaf disks or segments are incubated under defined conditions (temperature, relative humidity, light, etc.) according to the respective test system. A single evaluation of disease level is carried out 3 to 14 days after inoculation, depending on the pathosystem. Percent disease control relative to the untreated check leaf disks or segments is then calculated. General Examples of Liquid Culture Tests in Well Plates:
Example 5: Fungicidal Activity Against Uromyces viciae-fabae/Field Bean/Leaf Disc Preventative (Faba-Bean Rust)
Field bean leaf discs are placed on water agar in multiwell plates (96-well format) and 10 μl of the formulated test compound diluted in acetone and a spreader pipetted onto the leaf disc. Two hours after application leaf discs are inoculated by spraying a spore suspension on the lower leaf surface. The leaf discs are incubated in a climate cabinet at 22° C. with 18 hour day and 70% relative humidity. The activity of a compound is assessed as percent disease control compared to untreated when an appropriate level of disease damage appears in untreated check leaf disks (12 days after application).
The following compounds at 100 ppm in the applied formulation give at least 80% disease control in this test when compared to untreated control leaf discs under the same conditions, which show extensive disease development.

A further assay deals with Phakopsora pachyrhizi. The experiment in a line: Fungicidal activity against Phakopsora pachyrhizi / soybean / leaf disc preventative (Asian soybean rust). Particulars: foliar, 200 ppm in the applied formulation, soybean leaf disks, preventative (inoculated one day after application), assessed 12 to 14 days after application, read-out: disease control compared to untreated control leaf disks. In a few lines: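 Soybean leaf discs on water agar sprayed with formulated compound diluted in water; spore suspension sprayed on lower leaf surface one day later. Incubated 24-36 h dark at 20° C, 75% rh, then 20° C, 12 h light/day, 75% rh. Percent disease control versus untreated scored 12 to 14 days after application.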

Take `O=C(NC1(C2CC2)CC1)c1ccc(-c2noc(C(F)(F)F)n2)cc1Cl` [Compound 2b.16, 2-chloro-N-(1-cyclopropylcyclo-propyl)-4-[5-(trifluoromethyl)-1,2,4-oxadiazol-3-yl]benzamide]: the pest or weed control at 200 ppm in assay [1] is not below 80%. Besides, the pest or weed control at 100 ppm in the assay with Uromyces viciae-fabae is not below 80%.

In the case of `CN(CC1CCCCN1C)C(=O)c1ccc(-c2noc(C(F)(F)F)n2)cc1` (stereo not shown) [Compound 1a.10, N-methyl-N-[(1-methyl-2-piperidyl)methyl]-4-[5-(trifluoromethyl)-1,2,4-oxadiazol-3-yl]benzamide], the pest or weed control at 200 ppm in assay [1] is not below 80%. Moreover, the pest or weed control at 100 ppm in the assay on Uromyces viciae-fabae is not below 80%.

With `CCOC(=O)N1CCC(NC(=O)c2ccc(-c3noc(C(F)(F)F)n3)cc2F)CC1` [Compound 1b.4, ethyl 4-[[2-fluoro-4-[5-(trifluoromethyl)-1,2,4-oxadiazol-3-yl]benzoyl]amino]piperidine-1-carbonylate], the pest or weed control at 200 ppm in assay [1] was not below 80%. In addition, the pest or weed control at 100 ppm in the assay on Uromyces viciae-fabae is not below 80%.

Turning to `CC1CCC(NC(=O)c2ccc(-c3noc(C(F)(F)F)n3)cc2)CC1` (stereo not shown) [Compound 2a.6, N-(4-methylcyclohexyl)-4-[5-(trifluoromethyl)-1,2,4-oxadiazol-3-yl]benzamide], the pest or weed control at 200 ppm (in assay [1]; in the assay on Phakopsora pachyrhizi) was not below 80% in each case. Also, the pest or weed control at 100 ppm in the assay on Uromyces viciae-fabae was not below 80%.

In the case of `O=C(NC1CCN(Cc2ccccc2)CC1)c1ccc(-c2noc(C(F)(F)F)n2)cc1F` [Compound 1b.3, N-(1-benzyl-4-piperidyl)-2-fluoro-4-[5-(trifuoromethyl)-1,2,4-oxadiazol-3-yl]benzamide], the pest or weed control at 200 ppm (in assay [1]; with Phakopsora pachyrhizi) was not below 80% each time. In addition, in the assay with Uromyces viciae-fabae, the pest or weed control at 100 ppm is not below 80%.

For `O=C(NC1CCSC1)c1ccc(-c2noc(C(F)(F)F)n2)cc1F` (stereo not shown) [Compound 1b.11, 2-fluoro-N-tetrahydrothiophen-3-yl-4-[5-(trifluoromethyl)-1,2,4-oxadiazol-3-yl]benzamide], the pest or weed control at 200 ppm in assay [1] was not below 80%. The pest or weed control at 100 ppm in the assay with Uromyces viciae-fabae was not below 80%.

With `CN(C(=O)c1ccc(-c2noc(C(F)(F)F)n2)cc1F)C1CCSC1` (stereo not shown) [Compound 1b.8, 2-fluoro-N-methyl-N-tetrahydrothiophen-3-yl-4-[5-(trifluoromethyl)-1,2,4-oxadiazol-3-yl]benzamide], in assay [1], the pest or weed control at 200 ppm is not below 80%. The pest or weed control at 100 ppm in the assay with Uromyces viciae-fabae is not below 80%.

Consider `CC(C)(C)OC(=O)N1CCC(CNC(=O)c2ccc(-c3noc(C(F)(F)F)n3)cc2)CC1` [Compound 1a.11, tert-butyl 4-[[[4-[5-(trifluoromethyl)-1,2,4-oxadiazol-3-yl]benzoyl]amino]methyl]piperidine-1-carboxylate], for which, in assay [1], the pest or weed control at 200 ppm was not below 80%. For the same compound, the pest or weed control at 100 ppm in the assay with Uromyces viciae-fabae was not below 80%.

With `CC(NC(=O)c1ccc(-c2noc(C(F)(F)F)n2)cc1Cl)C1CC1` (stereo not shown) [Compound 2b.15, 2-chloro-N-(1-cyclopropylethyl)-4-[5-(trifluoromethyl)-1,2,4-oxadiazol-3-yl]benzamide], the pest or weed control at 200 ppm (in assay [1]; in the assay on Phakopsora pachyrhizi) was not below 80% throughout. In addition, in the assay with Uromyces viciae-fabae, the pest or weed control at 100 ppm was not below 80%.

For `O=C(Nc1cccc(C(F)(F)F)c1)c1ccc(-c2noc(C(F)(F)F)n2)cc1` [Compound 4a.9, 4-[5-(trifluoromethyl)-1,2,4-oxadiazol-3-yl]-N-[3-(trifluoromethyl)phenyl]benzamide], the pest or weed control at 200 ppm in the assay with Phakopsora pachyrhizi was not below 80%. Further, in the assay with Uromyces viciae-fabae, the pest or weed control at 100 ppm is not below 80%.

`CC1CCCC(NC(=O)c2ccc(-c3noc(C(F)(F)F)n3)cc2F)C1` (stereo not shown) [Compound 2b.10, 2-fluoro-N-(3-methylcyclohexyl)-4-[5-(trifluoromethyl)-1,2,4-oxadiazol-3-yl]benzamide]: in assay [1], the pest or weed control at 200 ppm is not below 80%. In the assay on Uromyces viciae-fabae, the pest or weed control at 100 ppm is not below 80%.

Regarding `O=C(Nc1ccccc1)c1ccc(-c2noc(C(F)(F)F)n2)cc1F` [Compound 4b.12, 2-fluoro-N-phenyl-4-[5-(trifluoromethyl)-1,2,4-oxadiazol-3-yl]benzamide], in the assay with Phakopsora pachyrhizi, the pest or weed control at 200 ppm is not below 80%. Further, the pest or weed control at 100 ppm with Uromyces viciae-fabae is not below 80%.

As for `CCc1cccc(NC(=O)c2ccc(-c3noc(C(F)(F)F)n3)cc2)c1` [Compound 4a.10, N-(3-ethylphenyl)-4-[5-(trifluoromethyl)-1,2,4-oxadiazol-3-yl]benzamide], the pest or weed control at 200 ppm with Phakopsora pachyrhizi was not below 80%. For the same compound, in the assay with Uromyces viciae-fabae, the pest or weed control at 100 ppm is not below 80%.

On to `O=C(NC1CC1c1ccccc1)c1ccc(-c2noc(C(F)(F)F)n2)cc1F` (stereo not shown) [Compound 2b.7, 2-fluoro-N-(2-phenylcyclopropyl)-4-[5-(trifluoromethyl)-1,2,4-oxadiazol-3-yl]benzamide], for which the pest or weed control at 200 ppm with Phakopsora pachyrhizi was not below 80%. Further, the pest or weed control at 100 ppm with Uromyces viciae-fabae was not below 80%.

With `Cc1ccc(C)c(CNC(=O)c2ccc(-c3noc(C(F)(F)F)n3)cc2)c1` [Compound 4a.11, N-[(2,5-dimethylphenyl)methyl]-4-[5-(trifluoromethyl)-1,2,4-oxadiazol-3-yl]benzamide], in the assay with Phakopsora pachyrhizi, the pest or weed control at 200 ppm is not below 80%. Moreover, in the assay on Uromyces viciae-fabae, the pest or weed control at 100 ppm is not below 80%.

On to `O=C(NC1(Cc2ccc(Cl)cc2)CC1)c1ccc(-c2noc(C(F)(F)F)n2)cc1` [Compound 2a.7, N-[1-[(4-chlorophenyl)methyl]cyclopropyl]-4-[5-(trifluoromethyl)-1,2,4-oxadiazol-3-yl]benzamide], for which the pest or weed control at 200 ppm (in assay [1]; with Phakopsora pachyrhizi) was not below 80% throughout. The pest or weed control at 100 ppm in the assay with Uromyces viciae-fabae was not below 80%.

As to `O=C(NCC1CC(F)(F)C1(F)F)c1ccc(-c2noc(C(F)(F)F)n2)cc1Cl` (stereo not shown) [Compound 2b.14, 2-chloro-N-[(2,2,3,3-tetrafluorocyclo-butyl)methyl]-4-[5-(trifluoromethyl)-1,2,4-oxadiazol-3-yl]benzamide], the pest or weed control at 200 ppm in assay [1] is not below 80%. For the same compound, the pest or weed control at 100 ppm with Uromyces viciae-fabae is not below 80%.

For `COc1ccc(CNC(=O)c2ccc(-c3noc(C(F)(F)F)n3)cc2F)c(OC)c1` [Compound 4b.14, N-[(2,4-dimethoxyphenyl)methyl]-2-fluoro-4-[5-(trifluoromethyl)-1,2,4-oxadiazol-3-yl]benzamide], in assay [1], the pest or weed control at 200 ppm was not below 80%. Moreover, the pest or weed control at 100 ppm in the assay on Uromyces viciae-fabae was not below 80%.

With `O=C(Nc1ccc(N2CCOCC2)cc1)c1ccc(-c2noc(C(F)(F)F)n2)cc1` [Compound 4a.12, N-(4-morpholinophenyl)-4-[5-(trifluoromethyl)-1,2,4-oxadiazol-3-yl]benzamide], in the assay on Phakopsora pachyrhizi, the pest or weed control at 200 ppm was not below 80%. The pest or weed control at 100 ppm in the assay with Uromyces viciae-fabae was not below 80%.

Regarding `CC(C)(C)c1cc(NC(=O)c2ccc(-c3noc(C(F)(F)F)n3)cc2F)[nH]n1` [Compound 5b.6, N-(3-tert-butyl-1H-pyrazol-5-yl)-2-fluoro-4-[5-(trifluoromethyl)-1,2,4-oxadiazol-3-yl]benzamide], in the assay with Phakopsora pachyrhizi, the pest or weed control at 200 ppm was not below 80%. The pest or weed control at 100 ppm in the assay with Uromyces viciae-fabae is not below 80%.

For the compound `O=C(NCc1ccc(F)c(Br)c1)c1ccc(-c2noc(C(F)(F)F)n2)cc1F` [Compound 4b.13, N-[(3-bromo-4-fluoro-phenyl)methyl]-2-fluoro-4-[5-(trifluoromethyl)-1,2,4-oxadiazol-3-yl]benzamide], the pest or weed control at 200 ppm in assay [1] was not below 80%. The pest or weed control at 100 ppm in the assay with Uromyces viciae-fabae was not below 80%.

As for `O=C(Nc1ccc(F)cc1)c1ccc(-c2noc(C(F)(F)F)n2)cc1` [Compound 4a.8, N-(4-fluorophenyl)-4-[5-(trifluoromethyl)-1,2,4-oxadiazol-3-yl]benzamide], in the assay with Phakopsora pachyrhizi, the pest or weed control at 200 ppm was not below 80%. Further, in the assay with Uromyces viciae-fabae, the pest or weed control at 100 ppm is not below 80%.

With `O=C(N[C@H]1CCN(Cc2ccccc2)C1)c1ccc(-c2noc(C(F)(F)F)n2)cc1` [Compound 1a.6, N-[(3S)-1-benzylpyrrolidin-3-yl]-4-[5-(trifluoromethyl)-1,2,4-oxadiazol-3-yl]benzamide], the pest or weed control at 200 ppm in assay [1] was not below 80%. Also, in the assay with Uromyces viciae-fabae, the pest or weed control at 100 ppm is not below 80%.

As for `C[C@@H](NC(=O)c1ccc(-c2noc(C(F)(F)F)n2)cc1)C1CCCCC1` [Compound 2a.8, N-[(1R)-1-cyclohexylethyl]-4-[5-(trifluoromethyl)-1,2,4-oxadiazol-3-yl]benzamide], the pest or weed control at 200 ppm in the assay on Phakopsora pachyrhizi was not below 80%. For the same compound, in the assay on Uromyces viciae-fabae, the pest or weed control at 100 ppm was not below 80%.
